# In patent US20080280920A1, “Plasminogen Activator Inhibitor-1 Inhibitors” (priority 2005, published 2008):
# Tests used:
# Assay type in all cases: cell-based, human
# HCT-15 = experiment: NCI anticancer screen, HCT-15; conditions: Homo sapiens; HCT-15, Colon, 48 h
# T-47D = experiment: NCI anticancer screen, T-47D; conditions: Homo sapiens, T47D, Breast, 48 h
# RXF 393 = experiment: NCI anticancer screen, RXF 393; conditions: Homo sapiens; RXF 393, Renal, 48 h
# UACC-62 = experiment: NCI anticancer screen, UACC-62; conditions: Homo sapiens; UACC-62, Melanoma, 48 h
# HOP-92 = experiment: NCI anticancer screen, HOP-92; conditions: Homo sapiens; HOP-92, Non-Small Cell Lung, 48 h
# M14 = experiment: NCI anticancer screen, M14; conditions: Homo sapiens; M14, Melanoma, 48 h
# SF-295 = experiment: NCI anticancer screen, SF-295; conditions: Homo sapiens; SF-295, CNS, 48 h
# SNB-19 = experiment: NCI anticancer screen, SNB-19; conditions: Homo sapiens; SNB-19, CNS, 48 h
# K-562 = experiment: NCI anticancer screen, K-562; conditions: Homo sapiens, K562; K-562, Leukemia, 48 h
# A549/ATCC = experiment: NCI anticancer screen, A549/ATCC; conditions: Homo sapiens, Non-Small Cell Lung, 48 h
# OVCAR-3 = experiment: NCI anticancer screen, OVCAR-3; conditions: Homo sapiens; OVCAR-3, Ovarian, 48 h
# MCF7 = experiment: NCI anticancer screen, MCF7; conditions: Homo sapiens; MCF7, Breast, 48 h
# HT29 = experiment: NCI anticancer screen, HT29; conditions: Homo sapiens, HT-29; HT29, Colon, 48 h
# KM12 = experiment: NCI anticancer screen, KM12; conditions: Homo sapiens; KM12, Colon, 48 h
# A498 = experiment: NCI anticancer screen, A498; conditions: Homo sapiens; A498, Renal, 48 h
# SF-268 = experiment: NCI anticancer screen, SF-268; conditions: Homo sapiens; SF-268, CNS, 48 h
# SN12C = experiment: NCI anticancer screen, SN12C; conditions: Homo sapiens, 48 h, Renal
# OVCAR-4 = experiment: NCI anticancer screen, OVCAR-4; conditions: Homo sapiens; OVCAR-4, Ovarian, 48 h
# OVCAR-8 = experiment: NCI anticancer screen, OVCAR-8; conditions: Homo sapiens; OVCAR-8, Ovarian, 48 h
# NCI-H522 = experiment: NCI anticancer screen, NCI-H522; conditions: Homo sapiens; NCI-H522, Non-Small Cell Lung, 48 h
# SK-MEL-5 = experiment: NCI anticancer screen, SK-MEL-5; conditions: Homo sapiens; SK-MEL-5, Melanoma, 48 h
# SK-MEL-28 = experiment: NCI anticancer screen, SK-MEL-28; conditions: Homo sapiens; SK-MEL-28, Melanoma, 48 h
# TK-10 = experiment: NCI anticancer screen, TK-10; conditions: Homo sapiens; TK-10, Renal, 48 h
# MDA-MB-231/ATCC = experiment: NCI anticancer screen, MDA-MB-231/ATCC; conditions: Homo sapiens, Breast, 48 h
# HS 578T = experiment: NCI anticancer screen, HS 578T; conditions: Homo sapiens, Breast, 48 h
# COLO 205 = experiment: NCI anticancer screen, COLO 205; conditions: Homo sapiens; COLO 205, Colon, 48 h
# BT-549 = experiment: NCI anticancer screen, BT-549; conditions: Homo sapiens; BT-549, Breast, 48 h
# DU-145 = experiment: NCI anticancer screen, DU-145; conditions: Homo sapiens; DU-145, Prostate, 48 h
# IGR-OV1 = experiment: NCI anticancer screen, IGR-OV1; conditions: Homo sapiens, IGROV-1; IGR-OV1, Ovarian, 48 h
# 786-0 = experiment: NCI anticancer screen, 786-0; conditions: Homo sapiens; 786-0, Renal, 48 h
# SF-539 = experiment: NCI anticancer screen, SF-539; conditions: Homo sapiens; SF-539, CNS, 48 h
# CAKI-1 = experiment: NCI anticancer screen, CAKI-1; conditions: Homo sapiens; CAKI-1, Renal, 48 h
# EKVX = experiment: NCI anticancer screen, EKVX; conditions: Homo sapiens, Non-Small Cell Lung, 48 h
# OVCAR-5 = experiment: NCI anticancer screen, OVCAR-5; conditions: Homo sapiens; OVCAR-5, Ovarian, 48 h
Structure (SMILES),GI50 (HCT-15) [µM],GI50 (T-47D) [µM],GI50 (RXF 393) [µM],GI50 (UACC-62) [µM],GI50 (HOP-92) [µM],GI50 (M14) [µM],GI50 (SF-295) [µM],GI50 (SNB-19) [µM],GI50 (K-562) [µM],GI50 (A549/ATCC) [µM],GI50 (OVCAR-3) [µM],GI50 (MCF7) [µM],GI50 (HT29) [µM],GI50 (KM12) [µM],GI50 (A498) [µM],GI50 (SF-268) [µM],GI50 (SN12C) [µM],GI50 (OVCAR-4) [µM],GI50 (OVCAR-8) [µM],GI50 (NCI-H522) [µM],other results
"CC(C)(C)OC(=O)Nc1ccc(O)c(C(=O)NCCOC(=O)NCCNC(=O)c2cc(OCc3ccccc3)ccc2OCc2ccccc2)c1 [Compound Q012052, 2-[5-(BOC-amino)-2-hydroxybenzoylamino]ethyl 2-[2,5-bis-(benzyl-oxy)benzoylamino]ethylcarbamate]",> 100,5.05,> 100,> 100,83.1,> 100,21.9,> 100,14,68.8,> 100,17.1,> 100,> 100,> 100,> 100,> 100,29.1,> 100,49.7,GI50 (SK-MEL-5): > 100 µM; GI50 (SK-MEL-28): > 100 µM; GI50 (TK-10): > 100 µM; GI50 (MDA-MB-231/ATCC): > 100 µM; GI50 (HS 578T): > 100 µM; GI50 (COLO 205): 8.97 µM; GI50 (BT-549): 80.1 µM; GI50 (DU-145): > 100 µM; GI50 (IGR-OV1): 25.3 µM; GI50 (786-0): > 100 µM; GI50 (SF-539): > 100 µM; GI50 (CAKI-1): 98 µM; GI50 (EKVX): 35.1 µM; GI50 (OVCAR-5): > 100 µM
COc1cc(CNc2ccc(C(=O)OC(C)(C)C)cc2)cc(CN2CCN(c3ccccn3)CC2)c1O [Compound Q012145T],46.4,13.1,80.3,74.5,6.57,83.3,69.9,> 100,10.2,84.3,37.5,21,12.7,80.1,16.2,61.5,> 100,46.9,> 100,52.9,GI50 (SK-MEL-5): 10.7 µM; GI50 (SK-MEL-28): > 100 µM; GI50 (TK-10): 70.4 µM; GI50 (MDA-MB-231/ATCC): > 100 µM; GI50 (HS 578T): > 100 µM; GI50 (COLO 205): 24.8 µM; GI50 (BT-549): 52.9 µM; GI50 (DU-145): > 100 µM; GI50 (IGR-OV1): > 100 µM; GI50 (786-0): 48.6 µM; GI50 (SF-539): > 100 µM; GI50 (CAKI-1): > 100 µM; GI50 (EKVX): 51.5 µM; GI50 (OVCAR-5): > 100 µM
